Laboratory results from US6638947B2, “Carbocyclic and heterocyclic substituted semicarbazones and thiosemicarbazones and the use thereof” (Euro-Celtique S.A., priority 1997, dated 2003).

Tests used:
[1] = biological target: T1, human skeletal muscle Na^+ channel subunit (Homo sapiens, UniProt P35499); assay: Na^+ current recordings in HEK-293 cells stably expressing human skeletal muscle Na^+ channel subunit; format: cell-based
T1 construct: expressed in transfected cells
Method: The relative in vitro potency of these compounds were determined by their ability to inhibit human skeletal muscle Na^+ channel subunit stable expressed in HEK-293 cells. The techniques employed for Na^+ current recordings and analysis with the use of this cell line were similar to that described in example 36. These studies employ depolarizing prepulses of varying duration to allow drugs to bind, a brief (5 ms) repolarizing step to reprime unbound channels, followed by the test pulse (5 ms) to measure what proportion of channels are inhibited. The reduction in peak currents is then plotted as a function of prepulse duration and the time constant (τ) measured by monoexponential fit. A plot of 1/τ as a function of antagonist concentration then allows the macroscopic binding rates of the antagonists to be calculated. The anticonvulsant activities of additional compounds of the present invention were determined as described in example 38.

[2] = system: voltage-sensitive Na^+ channels; assay: Electrophysiological assay: patch-clamp recordings of voltage-sensitive Na^+ currents in acutely dissociated hippocampal neurons; format: cell-based, rat
Method: Electrophysiological Assay:
Cell preparation: Acute cultures of rat hippocampal neurons were prepared daily using a modification of procedures described previously (Kuo and Bean, Mol. Pharm. 46:716-725 (1994)). Briefly, hippocampi were isolated from 3-11 day old rat pup brains (Sprague-Dawley; Charles River) and were sectioned, by hand, into 0.5-1 mm thick transverse slices (Whittemore and Koerner, Eur. J. Pharm. 192:435-438 (1991)). Slices were incubated for at least 30 min at room temperature (20-24° C.) in an oxygenated medium (124 mM NaCl, 3.3 mM KCl, 2.4 mM MgSO4, 2.5 mM CaCl2, 1.2 mM KH2PO4, 26 mM NaHCO3, pH =7.4) continuously bubbled with 5% CO2/95% O2. […]
Patch-clamp recordings of voltage-sensitive Na^+ currents: Whole-cell voltage-clamp recordings were made using conventional patch-clamp technique (Hamill et al., Pfluegers Arch. 391:85-100 (1981)) with an Axopatch 200A amplifier (Axon Instruments, Foster City, Calif.). […] Currents were recorded at room temperature (22-25° C.), filtered at 5 kHz with 4-pole Bessel filter, digitized at 20-50-μs intervals, and stored using Digidata 1200 analog/digital interface with Pclamp6/Clampex software (Axon Instruments). […] The inhibitory potency of drugs was assessed by measuring reductions in the peak amplitude of Na^+ currents induced by increasing concentrations of compounds tested. […]

[3] = system: site 2 of the Na^+ channel; format: binding, rat

T1 sequence (P35499 whole entry): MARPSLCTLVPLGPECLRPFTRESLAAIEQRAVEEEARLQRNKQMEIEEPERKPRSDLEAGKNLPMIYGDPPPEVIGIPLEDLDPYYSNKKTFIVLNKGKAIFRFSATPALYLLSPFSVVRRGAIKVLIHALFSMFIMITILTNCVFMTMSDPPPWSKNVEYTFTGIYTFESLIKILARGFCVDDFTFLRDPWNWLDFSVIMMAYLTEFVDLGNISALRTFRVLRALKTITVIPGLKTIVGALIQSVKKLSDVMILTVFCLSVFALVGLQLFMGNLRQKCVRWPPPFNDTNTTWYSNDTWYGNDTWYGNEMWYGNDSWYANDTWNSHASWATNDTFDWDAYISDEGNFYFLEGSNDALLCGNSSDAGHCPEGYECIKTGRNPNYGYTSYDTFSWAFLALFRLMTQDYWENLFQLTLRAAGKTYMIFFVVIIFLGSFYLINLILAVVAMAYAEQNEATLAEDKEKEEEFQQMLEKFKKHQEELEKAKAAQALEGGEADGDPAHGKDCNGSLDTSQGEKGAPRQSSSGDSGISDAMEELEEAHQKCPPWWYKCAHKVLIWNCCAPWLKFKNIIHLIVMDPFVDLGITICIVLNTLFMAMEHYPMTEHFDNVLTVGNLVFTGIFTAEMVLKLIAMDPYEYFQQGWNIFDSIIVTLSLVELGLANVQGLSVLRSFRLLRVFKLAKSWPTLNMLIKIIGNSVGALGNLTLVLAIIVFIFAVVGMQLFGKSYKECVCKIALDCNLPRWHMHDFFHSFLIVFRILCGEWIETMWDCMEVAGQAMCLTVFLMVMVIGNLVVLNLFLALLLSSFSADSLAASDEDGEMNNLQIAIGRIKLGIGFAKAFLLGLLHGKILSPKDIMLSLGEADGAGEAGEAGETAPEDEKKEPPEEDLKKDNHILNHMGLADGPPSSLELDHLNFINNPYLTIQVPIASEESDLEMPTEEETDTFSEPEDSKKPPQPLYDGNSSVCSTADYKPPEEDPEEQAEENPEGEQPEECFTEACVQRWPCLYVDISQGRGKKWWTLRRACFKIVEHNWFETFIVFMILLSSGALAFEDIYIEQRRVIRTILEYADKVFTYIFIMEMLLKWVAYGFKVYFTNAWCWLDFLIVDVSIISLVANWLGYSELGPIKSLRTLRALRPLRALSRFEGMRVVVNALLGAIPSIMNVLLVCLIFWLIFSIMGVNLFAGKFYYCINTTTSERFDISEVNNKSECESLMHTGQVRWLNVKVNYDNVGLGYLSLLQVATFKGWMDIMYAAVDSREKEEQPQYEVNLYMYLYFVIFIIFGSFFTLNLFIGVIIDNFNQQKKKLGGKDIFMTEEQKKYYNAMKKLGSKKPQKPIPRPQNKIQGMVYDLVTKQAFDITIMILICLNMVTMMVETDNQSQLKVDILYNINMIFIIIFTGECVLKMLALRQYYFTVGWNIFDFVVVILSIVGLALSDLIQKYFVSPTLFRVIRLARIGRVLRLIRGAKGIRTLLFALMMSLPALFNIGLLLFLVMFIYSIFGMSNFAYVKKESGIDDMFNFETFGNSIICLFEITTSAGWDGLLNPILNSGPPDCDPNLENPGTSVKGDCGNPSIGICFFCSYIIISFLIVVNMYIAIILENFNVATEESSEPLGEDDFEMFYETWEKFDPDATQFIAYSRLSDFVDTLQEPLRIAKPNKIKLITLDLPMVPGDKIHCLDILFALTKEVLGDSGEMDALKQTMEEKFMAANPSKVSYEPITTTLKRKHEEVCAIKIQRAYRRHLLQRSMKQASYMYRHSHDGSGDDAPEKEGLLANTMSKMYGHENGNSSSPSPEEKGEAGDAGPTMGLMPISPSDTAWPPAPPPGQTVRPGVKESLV

| SMILES | melting point [°C] | further results |
| --- | --- | --- |
| NC(=O)NN=Cc1ccc(Oc2ccc(Cl)cc2F)cc1 [4-(2-Fluoro-4-chlorophenoxy)benzaldehyde semicarbazone] | 218 to 220 | HsmNa^+ Ki [1]: 60 nM |
| NC(=O)NN=Cc1ccc(Oc2ccc(F)cc2)cc1 [4-(4-Fluorophenoxy) benzaldehyde semicarbazone] |  | effect on the overall shape of the Na^+ channel current-voltage relationship ([2]; measured at peak current): little effect |
| CN(N=Cc1ccc(Oc2ccc(F)cc2)c(F)c1)C(N)=O [4-(4-Fluorophenoxy)-3-fluorobenzaldehyde 2′-methylsemicarbazone] | 169 to 172 |  |
| NC(=O)NN=Cc1ccc(Oc2ccc(F)cc2)cc1 [4-(4-fluorophenoxy)benzaldehyde semicarbazone] |  | inhibition of voltage-gated Na^+ currents ([2]; acutely dissociated rat hippocampal neurons): dose-dependent inhibition |
| NC(=O)NN=Cc1ccc(Oc2ccc3c(c2)CCC3)cc1 [4-(5-indanoxy)benzaldehyde semicarbazone, 4-(5-Indanoxy)benzaldehyde semicarbazone] |  | HsmNa^+ Ki [1]: 40 nM |
| NC(=O)NN=Cc1ccc(OCC2CCCCC2)cc1 [Example 10, 4-(Cyclohexylmethoxy)benzaldehyde semicarbazone] | 218 to 219 |  |
| NC(=O)NN=Cc1ccc(OC2CCOCC2)cc1 [Example 12, 4-(4-Tetrahydropyranoxy)benzaldehyde semicarbazone] | 208 to 209 |  |
| NC(=O)NN=Cc1ccc(Oc2ccc([N+](=O)[O-])cc2)cc1 [Example 15, 4-(4-Nitrophenoxy)benzaldehyde semicarbazone] | 221 to 222 |  |
| CCCCCC(CC)Oc1ccc(C=NNC(N)=O)cc1 (stereo not shown) [Example 32b, 4-(3-Octoxy)benzaldehyde semicarbazone] | 45 |  |
| NC(=O)NN=Cc1ccc(Cc2ccccc2)cc1 [Example 33b, 4-Benzylbenzaldehyde semicarbazone] | 118 to 120 |  |
| NC(=O)NN=Cc1ccc(Oc2ccc(C(F)(F)F)cc2)cc1 [Example 34c, 4-(4-Trifluoromethylphenoxy)benzaldehyde semicarbazone] | 119 to 122 |  |
| NC1=N[C@H](O)[C@H]2[C@H]3O[C@]4(O)O[C@@H]([C@@H](O)[C@@]2(N1)[C@@H]4O)[C@]3(O)CO [Tetrodotoxin] |  | IC50 [3]: > 100000 nM |
